Measured values reported in patent US12215085B2 (priority 2019, dated 2025).
Marks after values point to notes of the source that are not given here.

How the values were obtained:
[1] = system: rats with common carotid artery occlusion-induced vascular dementia; assay: Step-down test, common carotid artery occlusion-induced vascular dementia rats; type: in vivo, rat; conditions: for Day 1, Error number / Day 2, Error latency / Day 2, Error number: step-down method, x ± s, succinate
Excerpt: (§1) A rat blood vessel dementia model was made according to the references [ZHAO Xian-lin, FANG Xiu-bin, LI Dong-pei. Establishment of Vascular Dementia Model in Rats, J Chin Med Univ, 2002, 31 (3): 166-168; WANG Yong-yan, Zhang Bo-li, Editor-in-chief. Modern Chinese Medicine Clinic and Research on Vascular Dementia, People's Medical Publishing House, October 2003, First Version 214]: Chloral hydrate 0.4 g/kg was intraperitoneally injected for anesthetizing rats, and bilateral common carotid arteries were isolated and ligated. The animals were fed for 16 weeks, divided into groups on the last 7 days, and administered. The normal control group and the model group were administrated through the intragastric route with distilled water by 0.5 ml/100 g, the positive control group was administrated through the intragastric route with donepezil hydrochloride by 1.75 mg/kg (equivalent to 3.85 times the clinical daily dosage of 5 mg/70 kg), the low, medium and high-dose groups of Crystal Form A of octahydroaminoacridine succinate were administrated through the intragastric route with Crystal Form A of octahydroaminoacridine succinate by 0.7, 1.4 and 2.8 mg/kg (equivalent to 0.96, 1.92 and 3.85 times the clinical daily dosage of 8 mg/70 kg). The water maze test and the step-down test were carried out after continuous administration for 7 days, and the administration was continued during the test period. The water maze test was continuously performed for 7 days, in the first 6 days, in four different water entry points of quadrants 1, 2, 3 and 4, the time, the swimming path length, the orientation angle and the average speed of the rat reaching the platform were measured, meanwhile, the strategy for reaching the platform adopted by rats was observed, on the 7th day, the platform was removed, the number of rats crossing the platform in 2 minutes, the residence time in the platform area, the residence time in the platform quadrants, the percentage of the swimming path length in the platform area quadrants to the total swimming path length, the average speed and the orientation angle were measured. After the water maze test was finished, the step-down test was performed, and the number of electric shocks (or called as the error number) received by each rat within 5 minutes was recorded as the learning performance. The test was performed again after 24 hours, namely, the memory retention test, and the latent period for stepping-down the platform for the first time and the error number in five minutes were recorded. After the step-down test was finished, the brain was taken quickly for pathological examination, and the pathological changes of the hippocampus and the cortex were observed.

[2] = system: rats with common carotid artery occlusion-induced vascular dementia; assay: Water maze test, common carotid artery occlusion-induced vascular dementia rats; type: in vivo, rat; conditions: for adopted strategy for reaching the platform (the peripheral type and the random type %) / orientation angle for reaching the platform / speed for reaching the platform / swimming path length for reaching the platform / time for reaching the platform / Average speed / Number of crossing the platform / Orientation angle / Swimming path length in the platform area/total swimming path length × 100% / Time in the platform area / Time in the platform quadrants: succinate; for orientation angle for reaching the platform / speed for reaching the platform / swimming path length for reaching the platform / time for reaching the platform: x ± s
Excerpt: as §1

[3] = 0.7 mg/kg intragastric, 0.7 mg/kg
[4] = 1.4 mg/kg intragastric, 1.4 mg/kg
[5] = 2.8 mg/kg intragastric, 2.8 mg/kg
[6] = Day 1, 0.7 mg/kg intragastric, 0.7 mg/kg
[7] = Day 1, 1.4 mg/kg intragastric, 1.4 mg/kg
[8] = Day 1, 2.8 mg/kg intragastric, 2.8 mg/kg
[9] = Day 2, 0.7 mg/kg intragastric, 0.7 mg/kg
[10] = Day 2, 1.4 mg/kg intragastric, 1.4 mg/kg
[11] = Day 2, 2.8 mg/kg intragastric, 2.8 mg/kg
[12] = Day 3, 0.7 mg/kg intragastric, 0.7 mg/kg
[13] = Day 3, 1.4 mg/kg intragastric, 1.4 mg/kg
[14] = Day 3, 2.8 mg/kg intragastric, 2.8 mg/kg
[15] = Day 4, 0.7 mg/kg intragastric, 0.7 mg/kg
[16] = Day 4, 1.4 mg/kg intragastric, 1.4 mg/kg
[17] = Day 4, 2.8 mg/kg intragastric, 2.8 mg/kg
[18] = Day 5, 0.7 mg/kg intragastric, 0.7 mg/kg
[19] = Day 5, 1.4 mg/kg intragastric, 1.4 mg/kg
[20] = Day 5, 2.8 mg/kg intragastric, 2.8 mg/kg
[21] = Day 6, 0.7 mg/kg intragastric, 0.7 mg/kg
[22] = Day 6, 1.4 mg/kg intragastric, 1.4 mg/kg
[23] = Day 6, 2.8 mg/kg intragastric, 2.8 mg/kg
[24] = Day 7, 0.7 mg/kg intragastric, 0.7 mg/kg
[25] = Day 7, 1.4 mg/kg intragastric, 1.4 mg/kg
[26] = Day 7, 2.8 mg/kg intragastric, 2.8 mg/kg

## Nc1c2c(nc3c1CCCC3)CCCC2.O=C(O)CCC(=O)O [Crystal Form A, 9-amino-1,2,3,4,5,6,7,8-octahydroacridine succinate]
[1]; 1.4 mg/kg, Day 2, P<0.05
  step-down error number vs model group: obviously reduced
[1]; 2.8 mg/kg, Day 1 and Day 2, P<0.05
  step-down error number vs model group: obviously reduced
[1]; 2.8 mg/kg, Day 2, P<0.05
  error latency vs model group: obviously prolonged
[1]; [3]
  Day 1, Error number: 7.50 ± 4.06
  Day 2, Error latency: 215.30 ± 83.07 s
  Day 2, Error number: 1.70 ± 1.49
[1]; [4]
  Day 1, Error number: 6.60 ± 2.88
  Day 2, Error latency: 223.70 ± 75.02 s
  Day 2, Error number: 1.30 ± 1.25
[1]; [5]
  Day 1, Error number: 5.80 ± 2.65
  Day 2, Error latency: 250.10 ± 72.32 s
  Day 2, Error number: 0.90 ± 1.28
[2]; 1.4 mg/kg, Day 4, P<0.05
  swimming path length for reaching the platform vs model group: obviously shortened
[2]; 1.4 mg/kg, Day 4 to Day 6, P<0.05 or P<0.01
  latent period for reaching the platform vs model group: obviously shortened
[2]; 2.8 mg/kg, Day 3, P<0.05
  swimming path length for reaching the platform vs model group: obviously shortened
[2]; 2.8 mg/kg, Day 3 to Day 6, P<0.05 or P<0.01
  latent period for reaching the platform vs model group: obviously shortened
[2]; 0.7, 1.4 and 2.8 mg/kg, Day 1 to Day 6
  orientation angle and swimming speed vs model group: not obviously changed
[2]; 0.7, 1.4 and 2.8 mg/kg, Day 7
  residence time in the platform quadrants, average speed, orientation angle and percentage of the swimming path length in the platform area quadrants to the total swimming path length vs model group: not obviously changed
[2]; 1.4 and 2.8 mg/kg, Day 7, P<0.05
  number of rats crossing the platform within 2 minutes vs model group: obviously increased
[2]; 1.4 and 2.8 mg/kg, P<0.05 or P<0.01
  conversion from the peripheral type or the random type to the tendency type or the linear type in the strategy for looking for the platform: obviously increased
[2]; [6]
  adopted strategy for reaching the platform (the peripheral type and the random type %): 75.00%
  orientation angle for reaching the platform: 64.44 ± 24.84 °
  speed for reaching the platform: 21.68 ± 6.14 cm/s
  swimming path length for reaching the platform: 1250.31 ± 599.61 cm
  time for reaching the platform: 60.40 ± 30.23 s
[2]; [7]
  adopted strategy for reaching the platform (the peripheral type and the random type %): 92.50%
  orientation angle for reaching the platform: 63.00 ± 21.34 °
  speed for reaching the platform: 22.93 ± 7.28 cm/s
  swimming path length for reaching the platform: 1491.17 ± 529.46 cm
  time for reaching the platform: 75.55 ± 32.44 s
[2]; [8]
  adopted strategy for reaching the platform (the peripheral type and the random type %): 87.50%
  orientation angle for reaching the platform: 75.34 ± 20.00 °
  speed for reaching the platform: 23.52 ± 5.71 cm/s
  swimming path length for reaching the platform: 1555.98 ± 522.10 cm
  time for reaching the platform: 69.25 ± 15.97 s
[2]; [9]
  adopted strategy for reaching the platform (the peripheral type and the random type %): 86.00%
  orientation angle for reaching the platform: 52.13 ± 14.28 °
  speed for reaching the platform: 23.68 ± 5.10 cm/s
  swimming path length for reaching the platform: 1368.59 ± 636.46 cm
  time for reaching the platform: 55.04 ± 31.39 s
[2]; [10]
  adopted strategy for reaching the platform (the peripheral type and the random type %): 65.00%
  orientation angle for reaching the platform: 48.91 ± 15.52 °
  speed for reaching the platform: 29.02 ± 6.70 cm/s
  swimming path length for reaching the platform: 917.85 ± 346.36 cm
  time for reaching the platform: 38.71 ± 18.28 s
[2]; [11]
  adopted strategy for reaching the platform (the peripheral type and the random type %): 82.50%
  orientation angle for reaching the platform: 57.20 ± 22.99 °
  speed for reaching the platform: 28.32 ± 7.08 cm/s
  swimming path length for reaching the platform: 1025.55 ± 559.44 cm
  time for reaching the platform: 40.76 ± 23.88 s
[2]; [12]
  adopted strategy for reaching the platform (the peripheral type and the random type %): 66.67%
  orientation angle for reaching the platform: 57.18 ± 14.54 °
  speed for reaching the platform: 26.27 ± 6.15 cm/s
  swimming path length for reaching the platform: 698.11 ± 448.85 cm
  time for reaching the platform: 29.31 ± 15.94 s
[2]; [13]
  adopted strategy for reaching the platform (the peripheral type and the random type %): 65.00* %
  orientation angle for reaching the platform: 53.59 ± 14.56 °
  speed for reaching the platform: 25.25 ± 5.42 cm/s
  swimming path length for reaching the platform: 804.05 ± 351.90 cm
  time for reaching the platform: 30.21 ± 14.13 s
[2]; [14]
  adopted strategy for reaching the platform (the peripheral type and the random type %): 60.00* %
  orientation angle for reaching the platform: 41.65 ± 17.28 °
  speed for reaching the platform: 24.59 ± 6.25 cm/s
  swimming path length for reaching the platform: 512.17 ± 265.98 cm
  time for reaching the platform: 21.75 ± 9.58 s
[2]; [15]
  adopted strategy for reaching the platform (the peripheral type and the random type %): 69.00%
  orientation angle for reaching the platform: 55.89 ± 20.65 °
  speed for reaching the platform: 25.53 ± 8.12 cm/s
  swimming path length for reaching the platform: 838.00 ± 799.29 cm
  time for reaching the platform: 35.34 ± 35.48 s
[2]; [16]
  adopted strategy for reaching the platform (the peripheral type and the random type %): 42.50** %
  orientation angle for reaching the platform: 50.23 ± 20.86 °
  speed for reaching the platform: 28.54 ± 9.09 cm/s
  swimming path length for reaching the platform: 461.53 ± 216.01 cm
  time for reaching the platform: 19.79 ± 10.95 s
[2]; [17]
  adopted strategy for reaching the platform (the peripheral type and the random type %): 62.50* %
  orientation angle for reaching the platform: 57.00 ± 17.94 °
  speed for reaching the platform: 27.72 ± 6.59 cm/s
  swimming path length for reaching the platform: 827.58 ± 463.98 cm
  time for reaching the platform: 22.79 ± 10.04 s
[2]; [18]
  adopted strategy for reaching the platform (the peripheral type and the random type %): 67.00%
  orientation angle for reaching the platform: 62.38 ± 27.61 °
  speed for reaching the platform: 24.14 ± 7.38 cm/s
  swimming path length for reaching the platform: 878.23 ± 464.48 cm
  time for reaching the platform: 71.16 ± 34.92 s
[2]; [19]
  adopted strategy for reaching the platform (the peripheral type and the random type %): 60.00%
  orientation angle for reaching the platform: 55.03 ± 19.71 °
  speed for reaching the platform: 29.15 ± 10.97 cm/s
  swimming path length for reaching the platform: 515.67 ± 565.72 cm
  time for reaching the platform: 16.28 ± 11.42 s
[2]; [20]
  adopted strategy for reaching the platform (the peripheral type and the random type %): 57.50%
  orientation angle for reaching the platform: 55.78 ± 27.48 °
  speed for reaching the platform: 27.44 ± 4.86 cm/s
  swimming path length for reaching the platform: 676.75 ± 429.93 cm
  time for reaching the platform: 21.57 ± 17.15 s
[2]; [21]
  adopted strategy for reaching the platform (the peripheral type and the random type %): 66.60%
  orientation angle for reaching the platform: 46.48 ± 22.04 °
  speed for reaching the platform: 22.02 ± 6.73 cm/s
  swimming path length for reaching the platform: 606.62 ± 360.87 cm
  time for reaching the platform: 37.72 ± 30.12 s
[2]; [22]
  adopted strategy for reaching the platform (the peripheral type and the random type %): 60.00* %
  orientation angle for reaching the platform: 53.94 ± 12.47 °
  speed for reaching the platform: 23.52 ± 2.43 cm/s
  swimming path length for reaching the platform: 393.13 ± 236.85 cm
  time for reaching the platform: 16.62 ± 8.69 s
[2]; [23]
  adopted strategy for reaching the platform (the peripheral type and the random type %): 55.00* %
  orientation angle for reaching the platform: 52.70 ± 15.27 °
  speed for reaching the platform: 23.55 ± 2.66 cm/s
  swimming path length for reaching the platform: 433.81 ± 327.88 cm
  time for reaching the platform: 18.98 ± 13.68 s
[2]; [24]
  Average speed: 24.04 ± 7.96 cm/s
  Number of crossing the platform: 5.55 ± 4.47
  Orientation angle: 5.56 ± 4.47 °
  Swimming path length in the platform area/total swimming path length × 100%: 26.83 ± 7.77%
  Time in the platform area: 1.86 ± 1.78 s
  Time in the platform quadrants: 33.93 ± 11.68 s
[2]; [25]
  Average speed: 28.44 ± 9.02 cm/s
  Number of crossing the platform: 12.20 ± 5.99
  Orientation angle: 12.20 ± 5.99 °
  Swimming path length in the platform area/total swimming path length × 100%: 31.89 ± 9.92%
  Time in the platform area: 3.18 ± 2.02 s
  Time in the platform quadrants: 40.31 ± 12.72 s
[2]; [26]
  Average speed: 26.15 ± 5.40 cm/s
  Number of crossing the platform: 10.40 ± 4.40
  Orientation angle: 10.40 ± 4.40 °
  Swimming path length in the platform area/total swimming path length × 100%: 28.40 ± 8.75%
  Time in the platform area: 3.23 ± 3.70 s
  Time in the platform quadrants: 33.72 ± 10.48 s
